In ChEMBL document CHEMBL1147743, “The first potent inhibitors for human glutaminyl cyclase: synthesis and structure-activity relationship” (J Med Chem, 2006) one finds Ki data, which are given here for two compounds.

The target of this experiment is Glutaminyl-peptide cyclotransferase (Homo sapiens, UniProt Q16769). Briefly: Inhibitory activity against human glutaminyl cyclase.
Glutaminyl-peptide cyclotransferase, sequence (Q16769 whole entry): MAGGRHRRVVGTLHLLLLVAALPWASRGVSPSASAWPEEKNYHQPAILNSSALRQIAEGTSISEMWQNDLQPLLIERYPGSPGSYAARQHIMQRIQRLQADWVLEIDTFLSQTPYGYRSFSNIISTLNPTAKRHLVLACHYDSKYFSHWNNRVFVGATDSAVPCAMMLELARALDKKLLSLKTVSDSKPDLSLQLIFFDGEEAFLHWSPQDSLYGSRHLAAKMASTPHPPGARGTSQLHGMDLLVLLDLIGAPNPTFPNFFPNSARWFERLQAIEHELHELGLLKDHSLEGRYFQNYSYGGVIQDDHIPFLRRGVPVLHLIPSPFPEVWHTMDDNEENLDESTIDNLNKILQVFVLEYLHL

`S=C(NCCCn1ccnc1)NC1CCCCC1` yielded a Ki of 4700 nM. The compound `O=C1CNC(=S)N1CCCn1ccnc1` displayed a Ki of 700 nM.

One may read the Ki as a measure of affinity in units of concentration, obtained from inhibition or displacement.
